For experiment [1], the target named is hFTase (Homo sapiens, UniProt P49354+P49356). Description: In vitro hFTase inhibition: incorporation of [3H]FPP into recombinant H-Ras-CVLS. In kind it is biochemical. Particulars: for selectivity (ratio of GGTase-I to FTase IC50s): GGTase-I IC50 / hFTase IC50.
In experiment [2] the test system is geranylgeranylation of Rap1A. Description: Whole cell inhibition of Rap1A processing (geranylgeranylation), immunoblot, oncogenic H-Ras-transformed NIH3T3 cells. To be noted: Mus musculus. In kind it is cell-based, mouse. How it is done:
(§1) In vitro inhibition assays for FTase and GGTase-I were conducted by measuring the incorporation of [^3H]FPP and [^3H]GGPP into recombinant H-Ras-CVLS and H-Ras-CVLL, respectively, as previously described (Vogt, et al., Protein geranylgeranylation, not farnesylation, is required for the G1 to S phase transition in mouse fibroblasts. Oncogene, 1996, 13, 1991-1999). The in vivo inhibition of farnesylation and geranylgeranylation was determined based on the level of inhibition by synthetic compounds of H-Ras and Rap1A processing, respectively (Sun, et al., Both farnesyltransferase and geranylgeranyltransferase I inhibitors are required for inhibition of oncogenic K-Ras prenylation but each alone is sufficient to suppress human tumor growth in nude mouse xenografts. Oncogene, 1998, 16, 1467-1473). […] The separated proteins were transferred to nitrocellulose and immunoblotted using an anti-Ras antibody (Y13-258) or an anti-Rap1A antibody (SantaCruz Biotechnology, Santa Cruz, Calif.), respectively. Antibody reactions were visualized using either peroxidase-conjugated goat anti-rat IgG or goat anti-rabbit IgG (Jackson ImmunoResearch, West Grove, Pa.) and an enhanced chemiluminescence detection system.
(§2) Briefly, in vitro inhibition assays for hFTase and GGTase-I were carried out by measuring the incorporation of [^3H]FPP and [^3H]GGPP into recombinant H-Ras-CVLS and H-Ras-CVLL, respectively, as described previously (Vogt et al., Protein geranylgeranylation, not farnesylation, is required for G1 to S phase transition in mouse fibroblasts. Oncogene. 1996; 13:1991-1999). Whole cell inhibition of farnesylation and geranylgeranylation were determined based on the level of inhibition by synthetic compounds of H-Ras and Rap1A processing, respectively (Sun, et al., Both farnesyltransferase and geranylgeranyltransferase I inhibitors are required for inhibition of oncogenic K-Ras prenylation but each alone is sufficient to suppress human tumor growth in nude mouse xenografts. Oncogene. 1998; 16:1467-1473).
(In general: Immunoblotting shows a protein as a band on a membrane.)

Experiment [3] relates to farnesylation of H-Ras. Description: Whole cell inhibition of H-Ras processing (farnesylation), immunoblot, oncogenic H-Ras-transformed NIH3T3 cells. In kind it is cell-based, mouse. Particulars: Mus musculus, NIH3T3, whole cells, oncogenic H-Ras-transformed NIH3T3; n = 3 unless stated; read-out: H-Ras processing IC50. The method, then:
as §1, §2

The mark [4] stands for this setting: whole cells, oncogenic H-Ras-transformed NIH3T3, n = 3 unless stated, read-out: Rap1A processing IC50.

The text below walks through data of patent US9040563B2, “Dual inhibitors of farnesyltransferase and geranylgeranyltransferase I” (H. Lee Moffitt Cancer Center and Research Institute, Inc., priority 2010, dated 2015).

Read-outs that look alike come from different tables or passages of the source.

Broadly, the IC50 is the concentration needed to halve the response being measured.

Consider “4-[{2-[Benzyl-(1-methyl-1H-imidazole-4-sulfonyl)-amino]-ethyl}-(1-methyl-1H-imidazol-4-ylmethyl)-amino]-benzamide [compound 13]”, for which the “selectivity (ratio of GGTase-I to FTase IC50s)” value in experiment [1] was above 2.
`C=CCN(CCN(Cc1cncn1C)c1ccc(C#N)cc1)S(=O)(=O)c1cn(C)cn1` [1ab]: the 50% inhibitory concentration (IC50) in experiment [2] (setting [4]) is above 10 µM. For the same molecule, in experiment [1], the “selectivity (ratio of GGTase-I to FTase IC50s)” value is given as above 14.
In the same order, the values of `Cn1cnc(S(=O)(=O)N(CCN(Cc2cncn2C)c2ccc(C#N)cc2)Cc2cccs2)c1` [1ak, [N-(Thiophen-2-ylmethyl), N-{2-[(4-cyanophenyl)-(3-methyl-3H-imidazol-4-ylmethyl)-amino]-ethyl}]1-methyl-1H-imidazole-4-sulfonamide] are above 10 µM and 2.6.
With `Cc1ccccc1CN(CCN(Cc1cncn1C)c1ccc(C#N)cc1)S(=O)(=O)c1cn(C)cn1` [1ao], the IC50 in experiment [2] (setting [4]) is above 10 µM. The “selectivity (ratio of GGTase-I to FTase IC50s)” value in experiment [1] was determined as 15.
Taken in the same sequence, the figures for `Cc1cccc(CN(CCN(Cc2cncn2C)c2ccc(C#N)cc2)S(=O)(=O)c2cn(C)cn2)c1` [1ap] were above 10 µM and 12.
Regarding `Cc1ccc(CN(CCN(Cc2cncn2C)c2ccc(C#N)cc2)S(=O)(=O)c2cn(C)cn2)cc1` [1aq], in experiment [2] (NIH3T3, read-out: Rap1A processing IC50), the IC50 is above 10 µM.
For `Cn1cnc(S(=O)(=O)N(CCN(Cc2cncn2C)c2ccc(C#N)cc2)Cc2cccc(C#N)c2)c1` [1ar], the IC50 in experiment [2] (setting [4]) is above 10 µM.
In the case of `Cn1cnc(S(=O)(=O)N(CCN(Cc2cncn2C)c2ccc(C#N)cc2)Cc2cccc(-c3ccccc3)c2)c1` [1at], in experiment [2] (setting [4]), the half-inhibitory concentration (IC50) is above 10 µM. Besides, the “selectivity (ratio of GGTase-I to FTase IC50s)” value in experiment [1] is reported as 2.4.
In the same order, the values of `Cn1cnc(S(=O)(=O)N(CCN(Cc2cncn2C)c2ccc(C#N)cc2)Cc2ccc(-c3ccccc3)cc2)c1` [1au] are above 10 µM and 4.3.
Taken in the same sequence, the figures for `Cn1cnc(S(=O)(=O)N(CCN(Cc2cncn2C)c2ccc(C#N)cc2)Cc2ccc(-n3cccc3)cc2)c1` [1av] were above 10 µM and 15.
Taken in the same sequence, the figures for `Cn1cncc1CN(CCN(Cc1ccccc1)S(=O)(=O)c1ccccc1)c1ccc(C#N)cc1` [1d] were above 10 µM and 7.6.
With `Cn1cnc(S(=O)(=O)N(CCN(Cc2cncn2C)c2ccc(C#N)cc2Cl)CC2CCN(c3ncccn3)CC2)c1` [19a, [N-{2-[(2-Chloro-4-cyanophenyl)-(3-methyl-3H-imidazol-4-ylmethyl)-amino]-ethyl}, N-{N-(2-pyrimidinyl)-piperidin-4-ylmethyl}]1-methyl-1H-imidazole-4-sulfonamide], in experiment [1], the “selectivity (ratio of GGTase-I to FTase IC50s)” value is on record as above 18.
On the same count and under the same terms, with `Cn1cnc(S(=O)(=O)N(CCN(Cc2cncn2C)c2ccc(C#N)nc2)CC2CCN(c3ncccn3)CC2)c1` [19b] the figure was above 19; with `Cn1cnc(S(=O)(=O)N(CCN(Cc2cncn2C)c2ccc(C#N)cn2)CC2CCN(c3ncccn3)CC2)c1` [19c, [N-{2-[(5-Cyanopyridin-2-yl)-(3-methyl-3H-imidazol-4-ylmethyl)-amino]-ethyl}, N-{N-(2-pyrimidinyl)-piperidin-4-ylmethyl}]1-methyl-1H-imidazole-4-sulfonamide], above 91; with `Cn1cnc(S(=O)(=O)N(CCN(Cc2cncn2C)c2ncc(C#N)cn2)CC2CCN(c3ncccn3)CC2)c1` [19d, [N-{2-[(5-Cyanopyrimidin-2-yl)-(3-methyl-3H-imidazol-4-ylmethyl)-amino]-ethyl}, N-{N-(2-pyrimidinyl)-piperidin-4-ylmethyl}]1-methyl-1H-imidazole-4-sulfonamide], above 16.
`Cn1cnc(S(=O)(=O)N(CCN(Cc2cncn2C)c2ccc(C#N)c(F)c2)CC2CCN(c3ncccn3)CC2)c1` [19e, [N-{2-[(3-Fluoro-4-cyanophenyl)-(3-methyl-3H-imidazol-4-ylmethyl)-amino]-ethyl}, N-{N-(2-pyrimidinyl)-piperidin-4-ylmethyl}]1-methyl-1H-imidazole-4-sulfonamide]: in experiment [1], the “selectivity (ratio of GGTase-I to FTase IC50s)” value was found to be 41.
Consider `Cn1cnc(S(=O)(=O)N(CCN(Cc2cncn2C)c2c(F)cc(C#N)cc2F)CC2CCN(c3ncccn3)CC2)c1` [19g, [N-{2-[(2,6-Difluoro-4-cyanophenyl)-(3-methyl-3H-imidazol-4-ylmethyl)-amino]-ethyl}, N-{N-(2-pyrimidinyl)-piperidin-4-ylmethyl}]1-methyl-1H-imidazole-4-sulfonamide], for which, in experiment [1], the “selectivity (ratio of GGTase-I to FTase IC50s)” value is reported as above 34.
Still for that read-out and setting: with `Cn1cnc(S(=O)(=O)N(CCN(Cc2cncn2C)c2c(F)c(F)c(C#N)c(F)c2F)CC2CCN(c3ncccn3)CC2)c1` [19h, [N-{2-[(2,3,5,6-Tetrafluoro-4-cyanophenyl)-(3-methyl-3H-imidazol-4-ylmethyl)-amino]-ethyl}, N-{N-(2-pyrimidinyl)-piperidin-4-ylmethyl}]1-methyl-1H-imidazole-4-sulfonamide] the figure was 18.
The same measure, in the same setting: as for `Cn1cnc(S(=O)(=O)N(CCCN(Cc2cncn2C)c2ccc(C#N)cc2)Cc2ccccc2)c1` [20a], the figure is 11; as for `Cn1cnc(S(=O)(=O)N(Cc2ccccc2)[C@@H]2CCC[C@@H]2N(Cc2cncn2C)c2ccc(C#N)cc2)c1` [20b], above 10.
On the same count and under the same terms, as for `Cn1cnc(S(=O)(=O)N(Cc2ccccc2)[C@H]2CC[C@@H](N(Cc3cncn3C)c3ccc(C#N)cc3)C2)c1` [20d], the figure is above 15.
`Cn1cnc(S(=O)(=O)N(CCN(Cc2cncn2C)c2ccc(C#N)cc2)Cc2ccccc2)c1` [compound 1a]: the IC50 in experiment [2] (setting [4]) was above 10 µM; in experiment [3], 1.9 ± 1.2 µM.
For the molecule `Cn1cnc(S(=O)(=O)N(CCN(Cc2cncn2C)c2ccc(C#N)cc2)Cc2ccsc2)c1` [compound 1ai, [N-(Thiophen-3-ylmethyl), N-{2-[(4-cyanophenyl)-(3-methyl-3H-imidazol-4-ylmethyl)-amino]-ethyl}]1-methyl-1H-imidazole-4-sulfonamide], the IC50 in experiment [2] (setting [4]) was above 10 µM. Besides, the “selectivity (ratio of GGTase-I to FTase IC50s)” value in experiment [1] was 14.
Taken in the same sequence, the figures for `Cn1cnc(S(=O)(=O)N(CCN(Cc2cncn2C)c2ccc(C#N)cc2)Cc2ccco2)c1` [compound 1aj, [N-(Furan-2-ylmethyl), N-{2-[(4-cyanophenyl)-(3-methyl-3H-imidazol-4-ylmethyl)-amino]-ethyl}]1-methyl-1H-imidazole-4-sulfonamide] were above 10 µM and 15.
Consider `Cn1cncc1CN(CCN(Cc1ccccc1)S(=O)(=O)c1ccccn1)c1ccc(C#N)cc1` [compound 1f], for which the results for the IC50 in experiment [2] (setting [4]) and in experiment [3] were above 10 µM and 0.09 ± 0.06 µM, respectively.
`Cn1cnc(S(=O)(=O)N(CCN(Cc2cnc[nH]2)c2ccccc2)Cc2ccccc2)c1` [compound 3]: the IC50 in experiment [2] (setting [4]) was above 10 µM; in experiment [1] (in vitro, average of three independent assays (n = 3) unless stated, errors are standard deviations), 6.3 ± 0.36 µM. In addition, in experiment [1], the “selectivity (ratio of GGTase-I to FTase IC50s)” value amounted to 1.6.
Consider `Cn1cnc(S(=O)(=O)N(CCN(Cc2cncn2C)c2ccc(C(=O)OC(C)(C)C)cc2)Cc2ccccc2)c1` [compound 11, tert-Butyl 4-[{2-[benzyl-(1-methyl-1H-imidazole-4-sulfonyl)-amino]-ethyl}-(3-methyl-3H-imidazol-4-ylmethyl)-amino]-benzoate], for which the “selectivity (ratio of GGTase-I to FTase IC50s)” value in experiment [1] is reported as 0.9.
On the same count and under the same terms, with `Cn1cnc(S(=O)(=O)N(CCN(Cc2cncn2C)c2ccc(C(=O)O)cc2)Cc2ccccc2)c1` [compound 12, 4-[{2-[Benzyl-(1-methyl-1H-imidazole-4-sulfonyl)-amino]-ethyl}-(3-methyl-3H-imidazol-4-ylmethyl)-amino]-benzoic acid] the figure was 48; with `Cn1cnc(S(=O)(=O)N(CCN(Cc2cncn2C)c2ccc(-c3ccccc3)cc2)Cc2ccccc2)c1` [compound 14, [N-Benzyl, N-{2-[(biphenyl-4-yl)-(3-methyl-3H-imidazol-4-ylmethyl)-amino]-ethyl}]1-methyl-1H-imidazole-4-sulfonamide], 0.7.
Still for that read-out and setting: as for `Cn1cnc(S(=O)(=O)N(CCN(Cc2cncn2C)c2ccc(C#N)cc2F)CC2CCN(c3ncccn3)CC2)c1` [compound 19f, [N-{2-[(2-Fluoro-4-cyanophenyl)-(3-methyl-3H-imidazol-4-ylmethyl)-amino]-ethyl}, N-{N-(2-pyrimidinyl)-piperidin-4-ylmethyl}]1-methyl-1H-imidazole-4-sulfonamide], the figure is above 156.
